# Data taken from patent US6355799B1, “Substituted benzene compounds, process for their preparation, and herbicidal and defoliant compositions containing them” (ISK Americas Incorporated, priority 1997, dated 2002).
# Key:
# Assay type in all cases: in vivo
# [1] = tested on: upland rice (Oryza sp., var. Tebonnet, RICE); experiment: Pre-emerge test, crop safety; conditions: crop damage rating 0-100, 14 days after application
# Procedure, shortened: (§1)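 Sandy loam pots; pre-emerge: sown 1 d pre-spray, surface-watered after, then bottom-watered. Post-emerge: sown 8–21 d before, 2–3 leaf stage, + 0.25% v/v NIS, bottom-watered. Acetone, 187 l/ha track spray, 15–1000 g ai/ha. 0–100 injury score, day 14.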
# [2] = tested on: field corn (Zea mays L., var. Dekalb 535, CORN); experiment: Pre-emerge test, crop safety; conditions: crop damage rating 0-100, 14 days after application
# Procedure, shortened: as §1
# [3] = tested on: upland rice (Oryza sp., var. Tebonnet, RICE); experiment: Post-emerge test, crop safety; conditions: post-emerge, 14 days after application, rating scale 0-100
# Procedure, shortened: as §1
# [4] = tested on: field corn (Zea mays L., var. Dekalb 535, CORN); experiment: Post-emerge test, crop safety; conditions: post-emerge, 14 days after application, rating scale 0-100
# Procedure, shortened: as §1
# [5] = tested on: redroot pigweed (Amaranthus retroflexus, AMARE); experiment: Post-emerge test, greenhouse herbicide activity screening; conditions: post-emerge, 14 days after application
# Description: (§2) A standard greenhouse herbicide activity screening system was used to evaluate the herbicidal efficacy and crop safety of these test compounds. Seven broadleaf weed species including redroot pigweed (Amaranthus retroflexus, AMARE, velvetleaf (Abutilon theophrasti, ABUTH), sicklepod (Cassia obtusifolia, CASOB), ivyleaf morningglory (Ipomoea hederacea, IPOHE), lambsquarters (Chenopodium album, CHEAL), common ragweed (Ambrosia artemisizfolia L., AMBEL), and cocklebur (Xanthium strumarium, XANST) were used as test species. Four grass weed species including green foxtail (Setaria viridis, SETVI), barnyardgrass (Echinochloa crus-galli, ECHCG), johnsongrass (Sorghum halepense, SORHA), and large crabgrass (Digitaria sanguinalis, DIGSA) were also used. In addition, three crop species, field corn (Zea mays L., var. Dekalb 535, CORN), soybean (Glycine max L., var. Pella 86, SOY), and is upland rice (Oryza sp., var. Tebonnet, RICE) were included.
# (§3) All plants were grown in 10 cm square plastic pots which were filled with a sandy loam soil mix. For pre-emerge tests, seeds were planted one day prior to application of the test compounds. For post-emerge tests, seeds were planted 8-21 days prior to the test to allow emergence and good foliage development prior to application of the test substances. At the time of the post-emerge application, plants of all species were usually at the 2-3 leaf stage of development.
# (§4) All test compounds Were dissolved in acetone and applied to the test units in a volume of 187 l /ha. Test materials were applied at rates ranging from 15 g ai/ha to 1000 g ai/ha using a track sprayer equipped with a TJ8001E even flow flat fan spray nozzle. Plants were arranged on a shelf so that the top of the canopy (post-emerge) or top of the soil surface (pre-emerge) was 40-45 cm below the nozzle. Pressurized air was used to force the test solution through the nozzle as it was mechanically advanced (via electrically driven chain drive) over the top of all test plants/pots. This application simulates a typical commercial field herbicide application.
# (§5) In the post-emerge test, a commercial non-ionic surfactant was also included (0.25% v/v) to enhance wetting of the leaf surfaces of target plants. Immediately after application, test units of the pre-emerge applications were watered at the soil surface to incorporate the test materials. Subsequently, these test units were bottom-watered. Post-emerge test units were always bottom-watered.
# (§6) At 14 days after application of the test materials, phytotoxicity ratings were recorded. A rating scale of 0-100 was used as previously described in Research Methods in Weed Science, 2nd edition, B. Truelove, Ed., Southern Weed Science Society, Auburn University, Auburn, Ala. 1977. Briefly, “0” corresponds to no damage and “100” corresponds to complete death of all plants in the test unit. This scale was used both to determine efficacy against weed species and damage to crop species. Herbicide activity data for various compounds of this invention, which are shown by compound No. in Tables 1-8, are shown in Tables 11 and 12.
# [6] = tested on: lambsquarters (Chenopodium album, CHEAL); experiment: as above; conditions: post-emerge, 14 days after application, rating scale 0-100
# Description: as §2, §3, §4, §5, §6
# [7] = tested on: velvetleaf (Abutilon theophrasti, ABUTH); experiment: as above; conditions: post-emerge, 14 days after application, rating scale 0-100
# Description: as §2, §3, §4, §5, §6
# [8] = tested on: green foxtail (Setaria viridis, SETVI); experiment: as above; conditions: post-emerge, 14 days after application, rating scale 0-100
# Description: as §2, §3, §4, §5, §6
# [9] = tested on: sicklepod (Cassia obtusifolia, CASOB); experiment: as above; conditions: post-emerge, 14 days after application, rating scale 0-100
# Description: as §2, §3, §4, §5, §6
# [10] = tested on: large crabgrass (Digitaria sanguinalis, DIGSA); experiment: as above; conditions: post-emerge, 14 days after application, rating scale 0-100
# Description: as §2, §3, §4, §5, §6
# [11] = tested on: barnyardgrass (Echinochloa crus-galli, ECHCG); experiment: as above; conditions: post-emerge, 14 days after application, rating scale 0-100
# Description: as §2, §3, §4, §5, §6
# [12] = tested on: ivyleaf morningglory (Ipomoea hederacea, IPOHE); experiment: as above; conditions: post-emerge, 14 days after application, rating scale 0-100
# Description: as §2, §3, §4, §5, §6
# [13] = tested on: lambsquarters (Chenopodium album, CHEAL); experiment: Pre-emerge test, greenhouse herbicide activity screening; conditions: phytotoxicity rating 0-100, 14 days after application
# Description: as §2, §3, §4, §5, §6
# [14] = tested on: velvetleaf (Abutilon theophrasti, ABUTH); experiment: as above; conditions: phytotoxicity rating 0-100, 14 days after application
# Description: as §2, §3, §4, §5, §6
# [15] = tested on: green foxtail (Setaria viridis, SETVI); experiment: as above; conditions: phytotoxicity rating 0-100, 14 days after application
# Description: as §2, §3, §4, §5, §6
# [16] = tested on: sicklepod (Cassia obtusifolia, CASOB); experiment: as above; conditions: phytotoxicity rating 0-100, 14 days after application
# Description: as §2, §3, §4, §5, §6
# [17] = tested on: large crabgrass (Digitaria sanguinalis, DIGSA); experiment: as above; conditions: phytotoxicity rating 0-100, 14 days after application
# Description: as §2, §3, §4, §5, §6
# [18] = tested on: barnyardgrass (Echinochloa crus-galli, ECHCG); experiment: as above; conditions: phytotoxicity rating 0-100, 14 days after application
# Description: as §2, §3, §4, §5, §6
# [19] = tested on: ivyleaf morningglory (Ipomoea hederacea, IPOHE); experiment: as above; conditions: phytotoxicity rating 0-100, 14 days after application
# Description: as §2, §3, §4, §5, §6
# [20] = tested on: redroot pigweed (Amaranthus retroflexus, AMARE); experiment: as above; conditions: phytotoxicity rating 0-100, 14 days after application
# Procedure, shortened: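 Visual ratings on a 0-100 scale (0 no damage, 100 all plants dead) were taken at 14 days after treatment. Rates of 15-1000 g ai/ha in acetone, 187 l/ha, were sprayed onto soil one day after planting (pre-emerge) or onto 2-3 leaf plants with 0.25% v/v surfactant (post-emerge).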
# [21] = 63 g ai/ha, rating scale 0-100 (0 no damage, 100 complete death)
# [22] = 250 g ai/ha, rating scale 0-100
SMILES,Pre-emerge Herbicidal Activity RICE ([1]; 63 g ai/ha),Pre-emerge Herbicidal Activity RICE ([1]; 250 g ai/ha),Pre-emerge Herbicidal Activity CORN ([2]; 63 g ai/ha),Pre-emerge Herbicidal Activity CORN ([2]; 250 g ai/ha),phytotoxicity rating RICE (crop damage) ([3]; 63 g ai/ha),phytotoxicity rating RICE (crop damage) ([3]; 250 g ai/ha),phytotoxicity rating CORN (crop damage) ([4]; 63 g ai/ha),phytotoxicity rating CORN (crop damage) ([4]; 250 g ai/ha),"phytotoxicity rating AMARE [5, 21]","phytotoxicity rating AMARE [5, 22]",phytotoxicity rating CHEAL ([6]; 63 g ai/ha),phytotoxicity rating CHEAL ([6]; 250 g ai/ha),phytotoxicity rating ABUTH ([7]; 63 g ai/ha),phytotoxicity rating ABUTH ([7]; 250 g ai/ha),phytotoxicity rating SETVI ([8]; 63 g ai/ha),phytotoxicity rating SETVI ([8]; 250 g ai/ha),phytotoxicity rating CASOB ([9]; 63 g ai/ha),phytotoxicity rating CASOB ([9]; 250 g ai/ha),phytotoxicity rating DIGSA ([10]; 63 g ai/ha),phytotoxicity rating DIGSA ([10]; 250 g ai/ha),also measured
COc1c(Cl)cc(F)c(-n2c(=O)cc(C(F)(F)F)n(C)c2=O)c1NC(=O)OCc1cccc(F)c1 [4-44],70,65,70,95,70,80,90,100,100,100,100,100,100,100,95,90,100,100,70,95,phytotoxicity rating ECHCG ([11]; 63 g ai/ha): 70; phytotoxicity rating ECHCG ([11]; 250 g ai/ha): 90; phytotoxicity rating IPOHE ([12]; 63 g ai/ha): 100; phytotoxicity rating IPOHE ([12]; 250 g ai/ha): 100; Pre-emerge Herbicidal Activity CHEAL ([13]; 63 g ai/ha): 100; Pre-emerge Herbicidal Activity CHEAL ([13]; 250 g ai/ha): 100; Pre-emerge Herbicidal Activity ABUTH ([14]; 63 g ai/ha): 100; Pre-emerge Herbicidal Activity ABUTH ([14]; 250 g ai/ha): 100; Pre-emerge Herbicidal Activity SETVI ([15]; 63 g ai/ha): 100; Pre-emerge Herbicidal Activity SETVI ([15]; 250 g ai/ha): 100; Pre-emerge Herbicidal Activity CASOB ([16]; 63 g ai/ha): 100; Pre-emerge Herbicidal Activity CASOB ([16]; 250 g ai/ha): 100; Pre-emerge Herbicidal Activity DIGSA ([17]; 63 g ai/ha): 100; Pre-emerge Herbicidal Activity DIGSA ([17]; 250 g ai/ha): 100; Pre-emerge Herbicidal Activity ECHCG ([18]; 63 g ai/ha): 80; Pre-emerge Herbicidal Activity ECHCG ([18]; 250 g ai/ha): 95; Pre-emerge Herbicidal Activity IPOHE ([19]; 63 g ai/ha): 100; Pre-emerge Herbicidal Activity IPOHE ([19]; 250 g ai/ha): 100; Pre-emerge Herbicidal Activity AMARE ([20]; 63 g ai/ha): 100; Pre-emerge Herbicidal Activity AMARE ([20]; 250 g ai/ha): 100
COc1c(Cl)cc(F)c(-n2c(=O)cc(C(F)(F)F)n(C)c2=O)c1NC(=O)OCc1ccc(OC(F)(F)F)cc1 [4-45],0,10,0,20,10,20,10,20,90,95,100,100,100,100,30,60,80,80,10,20,phytotoxicity rating ECHCG ([11]; 63 g ai/ha): 20; phytotoxicity rating ECHCG ([11]; 250 g ai/ha): 20; phytotoxicity rating IPOHE ([12]; 63 g ai/ha): 95; phytotoxicity rating IPOHE ([12]; 250 g ai/ha): 100; Pre-emerge Herbicidal Activity CHEAL ([13]; 63 g ai/ha): 50; Pre-emerge Herbicidal Activity CHEAL ([13]; 250 g ai/ha): 95; Pre-emerge Herbicidal Activity ABUTH ([14]; 63 g ai/ha): 50; Pre-emerge Herbicidal Activity ABUTH ([14]; 250 g ai/ha): 90; Pre-emerge Herbicidal Activity SETVI ([15]; 63 g ai/ha): 0; Pre-emerge Herbicidal Activity SETVI ([15]; 250 g ai/ha): 50; Pre-emerge Herbicidal Activity CASOB ([16]; 63 g ai/ha): 0; Pre-emerge Herbicidal Activity CASOB ([16]; 250 g ai/ha): 40; Pre-emerge Herbicidal Activity DIGSA ([17]; 63 g ai/ha): 0; Pre-emerge Herbicidal Activity DIGSA ([17]; 250 g ai/ha): 70; Pre-emerge Herbicidal Activity ECHCG ([18]; 63 g ai/ha): 0; Pre-emerge Herbicidal Activity ECHCG ([18]; 250 g ai/ha): 40; Pre-emerge Herbicidal Activity IPOHE ([19]; 63 g ai/ha): 10; Pre-emerge Herbicidal Activity IPOHE ([19]; 250 g ai/ha): 40; Pre-emerge Herbicidal Activity AMARE ([20]; 63 g ai/ha): 30; Pre-emerge Herbicidal Activity AMARE ([20]; 250 g ai/ha): 100
